Assay results: ChEMBL document CHEMBL3507680, “University of Dundee, Gates Library screen for HepG2 cell viability”

Test: Human HepG2 cell viability assay in 384 well format
Assay type: toxicity, cell-based
Set-up: dose 125 nL, time 70.5 hour; concentration not given beside the values
Conditions: HepG2 cells, read-out: Inhibition

| Compound | cytotoxicity at 70.5 h |
| --- | --- |
| COc1cccc2c1OCC(CNC(=O)Cc1csc(C(C)=O)c1)C2 (centres undefined) | 14.4% |
| Cc1cc(C)c(C(=O)N2CCCC(C(=O)CCc3ccccc3)C2)cn1 (centres undefined) | -3.58% |
| N[C@H]1CN(C(=O)c2ccc(Cl)cc2O)C[C@@H]1C1CC1 | -3.15% |
| O=C1Nc2ccccc2NC12CCN(Cc1nnc(C3CC3)o1)CC2 | -5.39% |
| COc1cccc(C(=O)N2C[C@@H](CN(C)CCO)[C@@H](CO)C2)c1C | 23.8% |
| Cc1cc(C)n(CC2(CNC(=O)C(c3ccc(F)cc3)N(C)C)CC2)n1 (centres undefined) | -1.88% |
| Cc1cc(NC(C)Cc2cccnc2)n2nccc2n1 (centres undefined) | -12% |
| CN(CCc1ccccc1)Cc1cc(C(=O)N2CCSCC2)no1 | -3.85% |
| CCn1nccc1C(=O)N1CCCCC1CCc1ccc(O)cc1 (centres undefined) | 11% |
| CCc1ccc(CN(C)C(=O)C(c2ccccc2F)N(C)C)nc1 (centres undefined) | -7.7% |
| Cc1nc2c(c(N3CCC(O)(Cn4ccnc4)CC3)n1)CCNCC2 | -1.99% |
| Cc1nnsc1CNC(=O)c1ccc2c(c1)nc(N1CCOCC1)n2C | -12.9% |
| CSCC(=O)N1CCc2[nH]nc(-c3ccc4c(c3)OCO4)c2C1 | 0.0699% |
| COCc1noc(Cn2ccc3ccccc3c2=O)n1 | -5.61% |
| Cc1cccc(C(=O)N2CCCCC2c2ccc(CN(C)C)cc2)c1 (centres undefined) | -8.71% |
| O=C(NC1CCCC1)N1C[C@H]2CN(c3ccncc3)C[C@@]2(C(=O)O)C1 | 14.8% |
| O=C(NCc1cccc(F)c1F)c1cc(CN2CCCC(O)C2)on1 (centres undefined) | 4.85% |
| COCCN1CCCC2(CCN(c3cccc(C(F)(F)F)n3)C2)C1=O (centres undefined) | -9.08% |
| Cc1nc2c(c(=O)[nH]1)CN(C(=O)CC[C@@H]1CCCN3CCCC[C@H]13)C2 | 24.5% |
| COC1CCN(S(=O)(=O)N2C[C@H](c3ccccc3)[C@@H](N)C2)CC1 | -2.79% |
| COc1cc(C(=O)NCC2CCCN(Cc3ccco3)C2)ccn1 (centres undefined) | 16.1% |
| Cc1nn(C)c2ncnc(N3CCC(O)(CN4CCCC4)CC3)c12 | -6.34% |
| CC[S+]([O-])CCc1nc(CC(C)C)nn1-c1ccc2c(c1)OCCO2 (centres undefined) | 5.5% |
| COc1ccccc1N1CCN(C(=O)CSC(C)C)C(C)C1 (centres undefined) | -3.04% |
| Cc1noc(C)c1CCCNC(=O)C1CCN(C(C)C)CC1 | -7.17% |
| O=C(O)CC[C@@H]1CN(c2ncnc3[nH]ccc23)CC[C@@H]1N1CCOCC1 | -4.6% |
| Cc1nc2ncccn2c1C(=O)N1CCc2[nH]cnc2C1 | -1.79% |

| Compound | cytotoxicity at 70.5 h |
| --- | --- |
| Cn1cc(CN2CCC(Cn3cc(-c4ccccc4)nn3)CC2)cn1 | -4.28% |
| O=S(=O)(c1cccnc1)N1CCCCC1CCN1CCOCC1 (centres undefined) | 23.1% |
| O=C(NCc1ccccc1F)C1=NOC2(CCNC2)C1 (centres undefined) | -10.8% |
| O=C(NCc1ccco1)[C@H]1CC[C@@H]2[C@@H](CCN2c2ncc(F)cn2)O1 | -10.2% |
| CN(C)S(=O)(=O)N1CCC[C@]2(C[C@@H](Oc3ncccc3F)CO2)C1 | -11.4% |
| COCC1CN(Cc2cnn(C)c2)Cc2nn(C)cc21 (centres undefined) | -11.4% |
| O=S(=O)(C1CC1)N1CC[C@]2(C[C@@H](Oc3ncccc3F)CO2)C1 | 6.64% |
| CN(C)S(=O)(=O)N1CC[C@]2(C[C@@H](Oc3cccnc3)CO2)C1 | -5.96% |
| Cc1ccoc1C(=O)N1C[C@H](OCc2cccnc2)[C@H]2OCCC[C@H]21 | -15.2% |
| O=C(O)c1c(-c2cccnc2)ncc2c1CCN(CC1CCOC1)C2 (centres undefined) | 16.6% |
| O=C(c1ccccn1)N1CCC2(CC1)COC(COCC1CCCC1)C2 (centres undefined) | -13.8% |
| O=C(c1ncccn1)N1CCC2(CC1)COC(COc1ccccn1)C2 (centres undefined) | 10.9% |
| c1coc(CN2CCc3nnc(COc4cncnc4)n3CC2)c1 | -13.1% |
| CCOCC1CN(Cc2ccncc2)Cc2nn(C)cc21 (centres undefined) | -7.15% |
| O=C1CO[C@@H]2CN(Cc3ccsc3)C[C@H]2N1Cc1ccncc1 | 13.6% |
| O=C1NC2(CCN(Cc3cccs3)CC2)CC1c1ccncc1 (centres undefined) | 10.2% |
| COc1ccc(CN2CCOCC3(CCN(C4CCOCC4)C3)C2)cc1 (centres undefined) | -5.87% |
| Fc1cccc(CN2CCOCC3(CCN(C4CCOCC4)C3)C2)c1 (centres undefined) | -7.34% |
| Cc1cccc(CN2CCOCC3(CCN(C4CCOCC4)C3)C2)c1 (centres undefined) | 9.31% |
| c1coc(CN2C[C@@H]3CCCO[C@@H]3[C@H](N3CCCC3)C2)c1 | -8.85% |
| O=C1NC2(CCN(Cc3ccc(F)cc3)CC2)CC1c1ccncc1 (centres undefined) | -8.27% |
| CN(Cc1ccco1)[C@@H]1CN(Cc2ccsc2)C[C@@H]2CCCO[C@@H]21 | 2.78% |
| CC(=O)N1C[C@@H]2CN(Cc3cccnc3)CCO[C@@H]2C1 | -11.3% |
| O=C1NC2(CCN(Cc3cccnc3)CC2)CC1c1cccnc1 (centres undefined) | -8.55% |
| CN(Cc1ccco1)[C@@H]1CN(Cc2cccnc2)C[C@@H]2CCCO[C@@H]21 | -5% |
| c1cncc(CN2CCC3(COCCN(C4CCOCC4)C3)C2)c1 (centres undefined) | -6.19% |
| Cc1cccc(CN2CCOCC3(CCN(C4CCOCC4)C3)C2)n1 (centres undefined) | 7.65% |
